According to patent US6743790B2, “Factor VIIa inhibitory (thio)urea derivatives, their preparation and their use” (Aventis Pharma Deutschland GmbH, priority 2000, dated 2004):

Biological target: T1, factor VIIa/tissue factor (Homo sapiens, UniProt P08709)
T1 construct: human factor VIIa and TF (5 nM and 10 nM, respective final concentration)
Experiment: Factor VIIa (FVIIa) chromogenic assay
Format: biochemical
Details: human factor VIIa 5 nM and TF 10 nM, substrate S-2288 500 μM, 25° C., 15 minute preincubation
Procedure: The ability of the compounds of the formula I to inhibit factor VIIa or other enzymes like factor Xa, thrombin, plasmin, or trypsin is assessed by determining the concentration of the compound of the formula I that inhibits enzyme activity by 50%, i.e. the IC50 value, which is related to the inhibition constant Ki. Purified enzymes are used in chromogenic assays. The concentration of inhibitor that causes a 50% decrease in the rate of substrate hydrolysis is determined by linear regression after plotting the relative rates of hydrolysis (compared to the uninhibited control) versus the log of the concentration of the compound of formula I. For calculating the inhibition constant Ki, the IC50 value is corrected for competition with substrate using the formula Ki=IC50/{1+(substrate concentration/Km)},
wherein Km is the Michaelis-Menten constant (Chen and Prusoff, Biochem. Pharmacol. 22 (1973), 3099-3108; I. H. Segal, Enzyme Kinetics, 1975, John Wiley & Sons, New York, 100-125; which are incorporated herein by reference).
The inhibitory activity (expressed as inhibition constant Ki(FVIIa)) of the compounds of formula I towards factor VIIa/tissue factor activity was determined using a chromogenic assay essentially as described previously (J. A. Ostrem et al., Biochemistry 37 (1998) 1053-1059 which is incorporated herein by reference). Kinetic assays were conducted at 25° C. in half-area microtiter plates (Costar Corp., Cambridge, Mass.) using a kinetic plate reader (Molecular Devices Spectramax 250). A typical assay consisted of 25 μl human factor VIIa and TF (5 nM and 10 nM, respective final concentration) combined with 40 μl of inhibitor dilutions in 10% DMSO/TBS-PEG buffer (50 mM Tris, 15 mM NaCl, 5 mM CaCl2, 0.05% PEG 8000, pH 8.15). Following a 15 minute preincubation period, the assay was initiated by the addition of 35 μl of the chromogenic substrate S-2288 (D-Ile-Pro-Arg-p-nitroanilide, Pharmacia Hepar Inc., 500 μM final concentration).

T1 sequence (P08709 213-466 limits assumed): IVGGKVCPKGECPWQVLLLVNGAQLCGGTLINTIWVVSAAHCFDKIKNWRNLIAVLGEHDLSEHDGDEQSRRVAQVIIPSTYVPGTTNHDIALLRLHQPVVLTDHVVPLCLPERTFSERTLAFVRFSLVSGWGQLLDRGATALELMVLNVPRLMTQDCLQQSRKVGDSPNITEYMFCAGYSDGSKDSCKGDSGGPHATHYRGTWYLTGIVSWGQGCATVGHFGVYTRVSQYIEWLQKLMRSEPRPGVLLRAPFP
T1 sequence (P08709 61-212 limits assumed): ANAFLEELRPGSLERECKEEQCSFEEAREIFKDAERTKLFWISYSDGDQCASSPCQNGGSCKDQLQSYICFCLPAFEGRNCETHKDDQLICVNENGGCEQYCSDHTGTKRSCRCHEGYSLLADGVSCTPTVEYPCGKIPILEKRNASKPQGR
T1 sequence (P13726 33-295 partner): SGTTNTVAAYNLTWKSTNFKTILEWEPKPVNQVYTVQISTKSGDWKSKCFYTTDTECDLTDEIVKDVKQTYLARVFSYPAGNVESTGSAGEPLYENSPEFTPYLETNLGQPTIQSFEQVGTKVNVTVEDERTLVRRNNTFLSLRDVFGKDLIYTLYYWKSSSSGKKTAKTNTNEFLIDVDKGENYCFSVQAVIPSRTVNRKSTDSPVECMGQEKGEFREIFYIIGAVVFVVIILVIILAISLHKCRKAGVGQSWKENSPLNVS

Ki [nM]	Compound
14900	C[C@H](NC(=O)Nc1ccc(C(=N)N)cc1)C(=O)NCc1ccc(C(=N)N)cc1 [Example 1, (S)-N-(4-Carbamimidoylbenzyl)-2-[3-(4-carbamimidoylphenyl)ureido]propionamide]
20900	CN(C)c1ccc(CNC(=O)C(Cc2ccccc2)NC(=O)Nc2ccc(C(=N)N)cc2)cc1 (centres unmarked) [Example 2, 2-[3-(4-Carbamimidoylphenyl)ureido]-N-(4-dimethylaminobenzyl)-3-phenylpropionamide]
970	N=C(N)c1ccc(NC(=O)NCC(=O)NCc2ccc(Cl)c(Cl)c2)cc1 [Example 3, 2-[3-(4-Carbamimidoylphenyl)ureido]-N-(3,4-dichlorobenzyl)acetamide]
1940	CN(C)c1ccc(CNC(=O)CNC(=O)Nc2ccc(C(=N)N)cc2)cc1 [Example 4, 2-[3-(4-Carbamimidoylphenyl)ureido]-N-(4-dimethylaminobenzyl)acetamide]
730	N=C(N)c1ccc(NC(=O)NCC(=O)NC(c2ccccc2)c2ccccc2)cc1 [Example 5, N-Benzhydryl-2-[3-(4-carbamimidoylphenyl)ureido]acetamide]
2170	N=C(N)c1ccc(NC(=O)NCC(=O)NCc2cccc(Cl)c2)cc1 [Example 6, 2-[3-(4-carbamimidoylphenyl)ureido]-N-(3-chlorobenzyl)acetamide]
480	CC(NC(=O)CNC(=O)Nc1ccc(C(=N)N)cc1)c1ccc(Oc2ccc(Cl)cc2Cl)cc1 (centres unmarked) [Example 9]
6300	N=C(N)c1ccc(NC(=O)NCC(=O)NC(Cc2ccccc2)c2ccccc2)cc1 (centres unmarked) [Example 15]
430	C[C@H](NC(=O)CNC(=O)Nc1ccc(C(=N)N)cc1)c1ccccc1 [Example 18]
20200	C[C@@H](NC(=O)CNC(=O)Nc1ccc(C(=N)N)cc1)c1ccccc1 [Example 19]
130	Cc1ccc([C@H](C)NC(=O)CNC(=O)Nc2ccc(C(=N)N)cc2)cc1 [Example 21]
26	C[C@H](NC(=O)CNC(=O)Nc1ccc(C(=N)N)cc1)c1ccc2ccccc2c1 [Example 30]
83	COc1ccc(Oc2ccc(C(C)NC(=O)CNC(=O)Nc3ccc(C(=N)N)cc3)cc2)cc1 (centres unmarked) [Example 36]
86	CC(NC(=O)CNC(=O)Nc1ccc(C(=N)N)cc1)c1ccc(Oc2ccc([N+](=O)[O-])cc2)cc1 (centres unmarked) [Example 37]
7890	N=C(N)c1ccc(NC(=O)NCC(=O)NCc2ccncc2)cc1 [Example 40]
840	N=C(N)c1ccc(NC(=O)NCC(=O)NC(c2ccccc2)c2ccncc2)cc1 (centres unmarked) [Example 41]
7620	CC(C)(NC(=O)CNC(=O)Nc1ccc(C(=N)N)cc1)c1ccccc1 [Example 42]
8470	N#CC(NC(=O)CNC(=O)Nc1ccc(C(=N)N)cc1)c1ccc(F)cc1 (centres unmarked) [Example 43]
1500	N=C(N)c1ccc(NC(=O)NCC(=O)N[C@H]2CCc3ccccc32)cc1 [Example 44]
1410	N=C(N)c1ccc(NC(=O)NCC(=O)N[C@H]2CCCc3ccccc32)cc1 [Example 45]
13	CC(NC(=O)CNC(=O)Nc1ccc(C(=N)N)cc1)c1ccc(NC(=O)C2CCNCC2)cc1 (centres unmarked) [Example 49, Piperidine-4-carboxylic acid 4-(1-{2-[3-(4-carbamimidoylphenyl)ureido]acetylamino}-ethyl)phenylamide]
50	CC(NC(=O)CNC(=O)Nc1ccc(C(=N)N)cc1)c1ccc(NC(=O)c2cccnc2)cc1 (centres unmarked) [Example 51]
12	CC(NC(=O)CNC(=O)Nc1ccc(C(=N)N)cc1)c1ccc(NC(=O)c2cccc(Oc3ccccc3)c2)cc1 (centres unmarked) [Example 52]
47	CC(NC(=O)CNC(=O)Nc1ccc(C(=N)N)cc1)c1ccc(NC(=O)CCCN)cc1 (centres unmarked) [Example 54]
27	CC(NC(=O)CNC(=O)Nc1ccc(C(=N)N)cc1)c1ccc(C(F)(F)F)cc1C(F)(F)F (centres unmarked) [Example 60]
23	CC(NC(=O)CNC(=O)Nc1ccc(C(=N)N)cc1)c1ccc2c(c1)NC(=O)CO2 (centres unmarked) [Example 61]
33	COC(=O)c1cc(C(C)NC(=O)CNC(=O)Nc2ccc(C(=N)N)cc2)ccc1OCc1ccccc1 (centres unmarked) [Example 64]
3940	CC(NC(=O)CNC(=O)Nc1ccc(C(=N)N)c(Cl)c1)c1ccc2c(c1)OCCO2 (centres unmarked) [Example 68, 2-[3-(4-Carbamimidoyl-3-chlorophenyl)ureido]-N-[1-(2,3-dihydrobenzo[1,4]dioxin-6-yl)ethyl]acetamide]
116	C[C@H](NC(=O)CNC(=O)Nc1ccc(C(=N)N)c(F)c1)c1cccc(Br)c1 [Example 69, N-[(S)-1-(3-Bromophenyl)ethyl]-2-[3-(4-carbamimidoyl-3-fluorophenyl)ureido]-acetamide]
539	C[C@H](NC(=O)[C@H](CCC(=O)O)NC(=O)Nc1ccc(C(=N)N)cc1)c1cccc(Br)c1 [Example 70, (S)-4-[((S)-1-(3-Bromophenyl)ethyl)carbamoyl]-4-[3-(4-carbamimidoylphenyl)ureido]-butyric Acid]

Tested on: not given
Experiment: not given
Details: not given

melting point [°C]	Compound
147	CN(C)c1ccc(CNC(=O)C(Cc2ccccc2)NC(=O)Nc2ccc(C(=N)N)cc2)cc1 (centres unmarked) [Example 2, 2-[3-(4-Carbamimidoylphenyl)ureido]-N-(4-dimethylaminobenzyl)-3-phenylpropionamide]
209 to 214	CN(C)c1ccc(CNC(=O)CNC(=O)Nc2ccc(C(=N)N)cc2)cc1 [Example 4, 2-[3-(4-Carbamimidoylphenyl)ureido]-N-(4-dimethylaminobenzyl)acetamide]
